{"source": "patent US7022315B2", "about": "“Administration of a thiol-based chemoprotectant compound” (Oregon Health & Science University, priority 2000, dated 2006)", "key": {"[1]": {"system": "GM294 human fibroblasts", "test": "Cytoenhancement and chemoprotection in fibroblasts, WST assay", "assay_type": "cell-based", "experimental": "Cytotoxicity was assessed in GM294 human fibroblasts, 1×10^4 cells per well in 96 well plates, using the WST colorometric assay. […] Data are expressed as the percentage of live cells compared to control samples (without chemotherapy) and each point represents the mean±s.d. of 4 wells."}, "[2]": {"system": "Caspase-2 activity in B.5 LX-1 cells", "test": "Caspase-2 enzymatic activity (apoptosis)", "assay_type": "cell-based", "details": "for increase in caspase activity: variable between experiments", "experimental": "(§1) FIGS. 7A and 7B show the effect of cytoenhancement and chemoprotection on apoptosis. […] Apoptosis was assessed in cultured LX-1 SCLC cells pretreated for 18 hours with or without 100 μM BSO. The experimental conditions were no addition (open bars), melphalan (10 μg/ml, striped bars) or melphalan (10 μg/ml) plus N-acetylcysteine (1000 μg/ml) (cross hatched bars) for 20 h prior to harvest. Caspase-2 activity is expressed as percentage activity in untreated control samples (mean±standard deviation, n=3). TUNEL staining is expressed as the percentage of cells showing positive staining.\n(§2) Apoptosis was evaluated by measuring Caspase-2 enzymatic activity and by in situ TUNEL staining. […] The increase in caspase activity was variable between experiments and ranged from 50–100% at 7–8 h to 250–600% at 20–24 h after treatment with melphalan. […] In the experiment shown in FIG. 7B, TUNEL staining after melphalan treatment was positive in 29 of 3643 cells, compared to 7 of 4395 cells in the untreated control, and BSO treatment prior to melphalan increased the positive staining to 800 of 1699 cells. […] In both assays, activity was maximal with low doses of melphalan, or with a 1 hour pulse treatment with the doses used in the cytotoxicity assays.\nSamples of the cells used in the caspase and TUNEL assays were also evaluated for membrane permeability by trypan blue exclusion."}, "[3]": {"system": "B.5 LX-1 cells", "test": "cells", "details": "for EC50: Homo sapiens", "experimental": "FIGS. 4A and 4B show cytoenhancement and chemoprotection. […] Cytotoxicity was assessed in cultured LX-1 SCLC cells, 1×10^4 cells per well in 96 well plates, using the WST colorometric assay. BSO cytoenhancement consisted of preincubation at 100 μM BSO for 18 hours. The chemoprotective agent was added immediately after chemotherapy. The experimental conditions were dose/responses for chemotherapy (carboplatin or etoposide phosphate) alone (m), BSO cytoenhancement ( ? ), N-acetylcysteine rescue, (1000 μg/ml N-acetylcysteine, n), or BSO cytoenhancement and N-acetylcysteine rescue (u). Data are expressed as the percentage of live cells compared to untreated control samples without chemotherapy and each point represents the mean±standard deviation of 4 wells.\nThe effects of BSO cytoenhancement and thiol chemoprotection on the dose/response relationships for cytotoxicity of the alkylating chemotherapeutics were evaluated in the B.5 LX-1 cells. BSO cytoenhancement consisted of preincubation with 100 μM BSO for about 18–24 hours prior to addition of chemotherapy, and rescue consisted of 1000–2000 μg/ml of thiol chemoprotectant added immediately after chemotherapy.\nCytoenhancement and chemoprotection against non-alkylating chemotherapeutic agents was also evaluated.\nHalf-maximal cytotoxic concentrations (EC50) are expressed as μg/ml. Each EC50 measurement comprised 6 concentrations with 4 wells per concentration, and each dose response was performed in triplicate for each chemotherapeutic agent. Data are reported as the mean±pooled standard deviation for three independent experiments. P values are shown for the reduction in EC50 by BSO treatment (*=P<0.05, **=P<0.01, ***=P<0.001)."}, "[4]": {"system": "LX-1 SCLC cells", "test": "cells", "details": "for EC50 / Chemoprotective agent EC50: average ± pooled sd of two experiments", "experimental": "Cytotoxicity was assessed in cultured LX-1 SCLC cells, 1×10^4 cells per well in 96 well plates, using the WST colorometric assay. […] Chemoprotectant was added at the indicated concentration of N-acetylcysteine shown in FIG. 3A or D-methionine shown in FIG. 3B either alone (n) or immediately following chemotherapy. Data are expressed as the percentage of live cells compared to untreated control samples (without chemotherapy) and each point represents the mean±standard deviation of 4 wells.\nThe dose/response for rescue from chemotherapy cytotoxicity was evaluated for four different small molecular weight sulfur containing chemoprotectants.\nChemotherapy agents were fixed at the 90% lethal dose for each agent. Each EC50 measurement comprised 6 concentrations with 4 wells per concentration, and each dose response was performed twice for each protectant. EC50 concentrations, in μg/ml are reported as the average±pooled standard deviation for two independent experiments."}, "[5]": {"system": "LX-1 SCLC cells", "experimental": "Chemotherapy cytotoxicity was assessed in cultured LX-1 SCLC cells (1×10^4 cells/well in 96 well plates) using the WST colorometric assay. […] Cells then received either no protectant (open bars), or sodium thiosulfate, 2000 μg/ml, added immediately (striped bars), 2 hours (black bars) or 4 hours (cross hatched bars) after chemotherapy. Data are expressed as the percentage of live cells compared to control samples (without chemotherapy) and each point represents the mean±standard deviation of 4 wells.\nThe thiol chemoprotectants were added either concurrently with chemotherapy or up to 8 hours after chemotherapy."}, "[6]": {"system": "cultured tumor cells", "test": "Paclitaxel cytotoxicity with BSO and NAC (WST)", "assay_type": "cell-based"}, "[7]": {"system": "B.5 LX-1 cells", "test": "In situ TUNEL staining for DNA fragmentation", "assay_type": "cell-based", "experimental": "as §1, §2"}, "[8]": {"system": "rats", "test": "Protection against chemotherapy-induced myelosuppression, nadir blood counts", "assay_type": "in vivo, rat", "details": "STS alone; data not shown", "experimental": "FIGS. 10A–10D show the results of tests on chemoprotection for chemotherapy-induced myelosuppression. Rats received tri-drug chemotherapy (Carboplatin 200 mg/m2, etoposide phosphate 100 mg/m2, melphalan 10 mg/m2), with (triangles, squares) or without (circles) chemoprotection. Blood counts were determined prior to chemotherapy, at the blood nadir (6 days), and in the recovery phase (9 days after treatment). Chemoprotection was with NAC (1200 mg/kg) administered via aortic infusion 30 min prior to chemotherapy (triangles) or NAC prior to chemotherapy and STS (8 g/m2) immediately after chemotherapy (squares). In FIG. 10B and FIG. 10D animals received BSO (10 mg/kg i.p.×3 d) prior to treatment with chemotherapy. […] Significant difference from the no protectant groups were determined by Wilcoxon/Kruskal-Walliis rank sums tests (*p<0.05, **p<0.01).\nChemoprotection against chemotherapy-induced bone marrow toxicity was determined in BSO treated and untreated animals given i.a. carboplatin, etoposide phosphate, and melphalan. NAC with or without STS was administered either about 30 minutes prior to chemotherapy or immediately after chemotherapy, and was administered either i.v. or by aortic infusion."}, "[9]": {"details": "cited from earlier work"}, "[10]": {"details": "read-out: Chemoprotective agent EC50, protection against carboplatin 200 μg/ml (about 90% lethal dose)"}, "[11]": {"details": "read-out: Chemoprotective agent EC50, protection against cisplatin 15 μg/ml (about 90% lethal dose)"}}, "note": "Read-outs that look alike come from different tables or passages of the source.", "data": [{"smiles": "CCCCS(=N)(=O)CCC(N)C(=O)O", "note": "(stereo not drawn) [BSO, buthionine sulfoximine]", "values": [{"measurement": "effect on toxicity of melphalan, cisplatin and carboplatin", "setting": "[1]; 100 μM for 18 hours pretreatment", "result": "enhanced the toxicity of all three alkylators"}, {"measurement": "effect on cisplatin- or carboplatin-induced caspase activity", "setting": "[2]", "result": "No significant amplification of caspase activity"}, {"measurement": "effect on melphalan-induced Caspase-2 activity", "setting": "[2]; BSO pretreatment, low melphalan concentrations", "result": "amplified"}]}, {"smiles": "N.N.O=C([O-])C1(C(=O)[O-])CCC1.[Pt+2]", "note": "[Carboplatin, carboplatin]", "values": [{"measurement": "reduction of EC50 for cytotoxicity by BSO", "setting": "[3]; 100 μM BSO preincubation", "result": 48, "unit": "%"}, {"measurement": "Chemotherapy EC50 (cytotoxicity)", "setting": "[3]; Without BSO, mean ± pooled sd of three experiments", "result": "103 ± 21", "unit": "mg/L"}]}, {"smiles": "CSCC[C@@H](N)C(=O)O", "note": "[D-methionine]", "values": [{"measurement": "EC50", "setting": "[4]; [10]", "result": "379 ± 123", "unit": "mg/L"}, {"measurement": "EC50", "setting": "[4]; [11]", "result": "140 ± 41", "unit": "mg/L"}, {"measurement": "reduction of protection against cisplatin compared to simultaneous addition", "setting": "[5]; delayed for 2 hours after cisplatin", "result": "41.2±10.2", "unit": "%"}, {"measurement": "reduction of protection against cisplatin compared to simultaneous addition", "setting": "[5]; delayed to 4 hours after cisplatin", "result": "66.1±4.5", "unit": "%"}, {"measurement": "protection against cisplatin compared to simultaneous addition", "setting": "[5]; pretreatment for 30 min prior to cisplatin", "result": "did not increase the amount of protection"}]}, {"smiles": "CC(=O)O[C@H]1C(=O)[C@@]2(C)[C@H]([C@H](OC(=O)c3ccccc3)[C@]3(O)C[C@H](OC(=O)[C@H](O)[C@@H](NC(=O)c4ccccc4)c4ccccc4)C(C)=C1C3(C)C)[C@]1(OC(C)=O)CO[C@@H]1C[C@@H]2O", "note": "[paclitaxel]", "values": [{"measurement": "dose completely cytotoxic in vitro", "setting": "[6]; cells pretreated with BSO", "result": "≥ 5", "unit": "µM"}, {"measurement": "live cells (WST fluorescence)", "setting": "[6]; paclitaxel dose 5 (unit not given)", "result": "1.274 +/− .071"}, {"measurement": "live cells (WST fluorescence)", "setting": "[6]; paclitaxel dose 20 (unit not given)", "result": "0.771 +/− .056"}, {"measurement": "concentration at which it begins to be cytotoxic", "setting": "[6]; without BSO", "result": 20, "unit": "µM"}, {"measurement": "concentration at which it is completely toxic", "setting": "[6]; without BSO", "result": 30, "unit": "µM"}, {"measurement": "growth inhibitory dose", "setting": "[3]; not altered by BSO", "result": "approximately 10 nM"}]}, {"smiles": "N[C@@H](Cc1ccc(N(CCCl)CCCl)cc1)C(=O)O", "note": "[Melphalan, melphalan]", "values": [{"measurement": "reduction of EC50 for cytotoxicity by BSO", "setting": "[3]", "result": 53, "unit": "%"}, {"measurement": "EC50", "setting": "[3]; LX-1, read-out: Chemotherapy EC50 (cytotoxicity), + BSO (100 μM preincubation 18–24 hours), mean ± pooled sd of three experiments", "result": "6.4 ± 0.6", "unit": "mg/L"}, {"measurement": "EC50", "setting": "[3]; LX-1, read-out: Chemotherapy EC50 (cytotoxicity), Without BSO, mean ± pooled sd of three experiments", "result": "13.8 ± 1.8", "unit": "mg/L"}, {"measurement": "increase in caspase activity", "setting": "[2]; 7–8 h after treatment", "result": "50–100%"}, {"measurement": "increase in caspase activity", "setting": "[2]; 20–24 h after treatment", "result": "250–600%"}, {"measurement": "TUNEL staining positive cells", "setting": "[7]; BSO treatment prior to melphalan", "result": "800 of 1699"}, {"measurement": "TUNEL staining positive cells", "setting": "[7]; melphalan treatment without BSO", "result": "29 of 3643"}]}, {"smiles": "CN(Cc1cnc2nc(N)nc(N)c2n1)c1ccc(C(=O)N[C@@H](CCC(=O)O)C(=O)O)cc1", "note": "[methotrexate]", "values": [{"measurement": "BSO enhancement or N-acetylcysteine protection of the agent's cytotoxicity", "setting": "[3]", "result": "no enhancement or protection"}]}, {"smiles": "CCOC(=O)CNC(=O)[C@H](CS)NC(=O)CC[C@H](N)C(=O)O", "note": "[Glutathione ethyl ester]", "values": [{"measurement": "relative effectiveness among the thiol agents tested", "setting": "[4]; on a μg/ml basis", "result": "least effective"}, {"measurement": "Chemoprotective agent EC50", "setting": "[4]; protection against carboplatin 200 μg/ml (about 90% lethal dose)", "result": "995 ± 48", "unit": "mg/L"}, {"measurement": "Chemoprotective agent EC50", "setting": "[4]; protection against cisplatin 15 μg/ml (about 90% lethal dose)", "result": "530 ± 30", "unit": "mg/L"}, {"measurement": "Chemoprotective agent EC50", "setting": "[4]; protection against melphalan 20 μg/ml (about 90% lethal dose)", "result": "303 ± 124", "unit": "mg/L"}]}, {"smiles": "O=S(O)(O)=S", "note": "[STS, sodium thiosulfate]", "values": [{"measurement": "EC50", "setting": "[4]; [10]", "result": "442 ± 203", "unit": "mg/L"}, {"measurement": "EC50", "setting": "[4]; [11]", "result": "86 ± 76", "unit": "mg/L"}, {"measurement": "EC50", "setting": "[4]; read-out: Chemoprotective agent EC50, protection against melphalan 20 μg/ml (about 90% lethal dose)", "result": "110 ± 78", "unit": "mg/L"}, {"measurement": "protection against melphalan cytotoxicity with delayed addition", "setting": "[5]; melphalan 20 μg/ml, protectant delayed (2 hours for STS)", "result": "chemoprotection was reduced"}, {"measurement": "protection against platinum (carboplatin, cisplatin) cytotoxicity with delayed addition", "setting": "[5]; protectant delayed (up to 4 hours for STS)", "result": "still protective"}, {"measurement": "bone marrow protection", "setting": "[8]", "result": "did not give consistent bone marrow protection"}, {"measurement": "plasma half life", "setting": "[9]; after a bolus injection", "result": "about 17 minutes"}, {"measurement": "brain levels", "setting": "[9]; i.v. administration", "result": "< 5 % of blood"}]}, {"smiles": "COc1cc([C@@H]2c3cc4c(cc3[C@@H](O[C@@H]3O[C@@H]5CO[C@@H](C)O[C@H]5[C@H](O)[C@H]3O)[C@H]3COC(=O)[C@H]23)OCO4)cc(OC)c1OP(=O)(O)O", "note": "[etoposide phosphate]", "values": [{"measurement": "BSO enhancement or N-acetylcysteine protection of the agent's cytotoxicity", "setting": "[3]", "result": "BSO did not increase the cytotoxicity of etoposide phosphate, nor did N-acetylcysteine decrease the cytotoxicity"}, {"measurement": "effect of BSO and N-acetylcysteine on the agent's cytotoxicity", "setting": "[1]", "result": "neither BSO cytoenhancement nor N-acetylcysteine chemoprotection affected the cytotoxicity"}]}, {"smiles": "COc1cccc2c1C(=O)c1c(O)c3c(c(O)c1C2=O)C[C@@](O)(C(=O)CO)C[C@@H]3O[C@H]1C[C@H](N)[C@H](O)[C@H](C)O1", "note": "[doxorubicin]", "values": [{"measurement": "BSO enhancement or N-acetylcysteine protection of the agent's cytotoxicity", "setting": "[3]", "result": "no enhancement or protection"}]}]}
